3 compounds from patent US8885174B2, “Monitoring energy and matter fluxes by use of electromagnetic radiations” (priority 2009, dated 2014) can be followed below.

The test system of experiment [1] is HEKnorm. As to the kind of experiment: DHM phase signal recording on non-transfected HEK cells (HEKnorm). It counts as cell-based. To be noted: −100 mV, GABA 3 μM, 30 s. How it is done:
(§1) Electrophysiology recording: All cultures were perfused in an artificial cerebrospinal fluid (ACSF) containing (in mM): […] (pH 7.4; Room temperature). For some experiments performed on HEK cells, picrotoxin (30 μM, Tocris) was added to the ACSF. […] Whole-cell recordings were made, and signals were amplified by using Multiclamp 700B amplifiers (Axon Instruments, Union City, Calif.) and digitized by means of an ITC-1600 interface (Instrutech, Great Neck, N.Y.) to a PC computer running Igor Pro (Wavemetrics, Portland, Oreg.). All currents (sampling interval, 5 kHz) were low-pass filtered (2 kHz). They were recorded with pipettes containing 95 mM potassium-gluconate, 40 mM KCl, 10 mM Hepes, 2 mM MgCl2 (pH 7.3). For some experiments, 95 mM potassium-gluconate was substituted with 95 mM KCl to reach a final concentration of [Cl^−]intrapip, to 139 mM. The pipettes were pulled with a DMZ universal puller.
Imaging: Holograms are acquired with a DHMT 1000 (Lyncée Tech SA, PSE-EPFL). […] The object wave diffracted by the specimen is collected by a microscope objective and interferes with a reference beam to produce the hologram recorded by the CCD camera. […] The reconstruction algorithm provides simultaneous amplitude and quantitative phase images of the cells (Koala software).

Experiment [2] relates to cortical neurons in primary culture. The experiment is described as follows: DHM multisite phase recording on unpatched cortical neurons in primary culture. It counts as cell-based, mice. The note with it: GABA 100 μM, 30 s. How it is done: Neuronal cell cultures: Primary cultures of cortical neurons were prepared from E17 OF1 mice embryos. Briefly, embryos were decapitated and brains removed and placed in PBS-glucose. Cortex was removed under a dissecting microscope and collected in a small Petri dish in PBS-glucose. Cell dissociation was obtained by gentle trituration with a fire-polished Pasteur pipette in Neurobasal medium supplemented with B27 and GlutaMAX (Invitrogen). Cells were plated at an average density of 15000 cells/cm^2 in supplemented Neurobasal medium on poly-ornithine coated glass coverslips (20 mm Ø). After 3-4 h, coverslips were transferred to dishes containing glial cell monolayers in supplemented Neurobasal medium. Neurons were maintained at 37° C. in a humidified atmosphere of 95% air/5% CO2 and were used after 21-35 days in vitro (DIV).
Imaging: Holograms are acquired with a DHMT 1000 (Lyncée Tech SA, PSE-EPFL). A laser diode produces the coherent light (λ=683 nm) which is divided by a beam splitter into a reference wave and an object wave. The object wave diffracted by the specimen is collected by a microscope objective and interferes with a reference beam to produce the hologram recorded by the CCD camera. Frequency of hologram acquisition is 0.2 Hz. Reconstruction of the original image from the hologram is numerically achieved by a computer. The reconstruction algorithm provides simultaneous amplitude and quantitative phase images of the cells (Koala software). It is important to note that an extensive quality control of the DHM technique has been published by Rappaz et al “Comparative study of human erythrocytes by digital holographic microscopy, confocal microscopy, and impedance volume analyzer” Cytom Part A 73A, 895-903 (2008).
Neurons also presented heterogeneous phase responses.

The target in experiment [3] is T1, rat GABAA α1β2γ2s receptor expressed in HEK 293 cells (HEKGABA) (Rattus norvegicus, UniProt P18508+P62813+P63138). Format: cell-based. To be noted: −100 mV, picrotoxin 30 μM; for effect on phase signal in HEKGABA (in words): GABA 3 μM, muscimol 1 μM, 30 s.
Excerpt: HEKGABA cells: HEK 293 cells stably expressing configurations of rat GABAA receptors (HEKGABA) were generously given by Hoffmann-LaRoche (Basel, Switzerland). Briefly, cDNAs encoding rat GABAA α1, β2 and γ2s subunits were subcloned into the expression vectors pIRESpuro2, pIRESneo2 and pIREShygro2 vectors (Clontech, Mountain View, Calif.), respectively. The pIRES/GABAA α1, β2, γ2s, constructs were sequenced to confirm their nucleotide sequence and then cotransfected into HEK 293 cells at a ratio of 1:1:2 (plasmid mass ratio) using the lipofectamine 2000 kit according to the manufacturer's instructions (Invitrogen, Carlsbad, Calif., USA). Transfected cells were grown in minimal essential medium (Invitrogen) supplemented with 10% fetal calf serum (Invitrogen), 20 mM HEPES (Invitrogen) and 100 U/ml penicillin/100 μg/ml streptomycin (Invitrogen) for 48 hours and then, the cells were transferred to the selection medium containing 0.3 μg/ml puromycin (Clontech, Mountain View, Calif., USA), 300 μg/ml hygromycin B (Roche Diagnostics, Mannheim, Germany) and 200 μg/ml G418 (Invitrogen) for the generation of stable cell lines. Cell colonies were isolated and expression of the GABAA α1β2γ2s receptor was determined by [^3H] flumazenil binding.
as §1
Imaging: Holograms are acquired with a DHMT 1000 (Lyncée Tech SA, PSE-EPFL). A laser diode produces the coherent light (λ=683 nm) which is divided by a beam splitter into a reference wave and an object wave. The object wave diffracted by the specimen is collected by a microscope objective and interferes with a reference beam to produce the hologram recorded by the CCD camera. Frequency of hologram acquisition is 0.2 Hz. Reconstruction of the original image from the hologram is numerically achieved by a computer. The reconstruction algorithm provides simultaneous amplitude and quantitative phase images of the cells (Koala software).
Offline analysis: The electrophysiological and optical recordings were analysed by using MATLAB 7.6 (Mathworks Software, Natick, Mass.) and all curves have been fitted by using ORIGIN 7.5 (Microcal Software, Northampton, Mass.). […] All data are presented as means±SEM. Student's t-test (paired or unpaired) to determine statistical significance (p<0.05).

Experiment [4] deals with T1, rat GABAA α1β2γ2s receptor expressed in HEK 293 cells (HEKGABA). As to the kind of experiment: Whole-cell electrophysiology recording of GABAA current (IGABA, I/V curve) on HEKGABA cells. It counts as cell-based. To be noted: GABA 3 μM or muscimol 1 μM, 30 s. An excerpt: HEKGABA cells: HEK 293 cells stably expressing configurations of rat GABAA receptors (HEKGABA) were generously given by Hoffmann-LaRoche (Basel, Switzerland). Briefly, cDNAs encoding rat GABAA α1, β2 and γ2s subunits were subcloned into the expression vectors pIRESpuro2, pIRESneo2 and pIREShygro2 vectors (Clontech, Mountain View, Calif.), respectively. The pIRES/GABAA α1, β2, γ2s, constructs were sequenced to confirm their nucleotide sequence and then cotransfected into HEK 293 cells at a ratio of 1:1:2 (plasmid mass ratio) using the lipofectamine 2000 kit according to the manufacturer's instructions (Invitrogen, Carlsbad, Calif., USA). […] Cell colonies were isolated and expression of the GABAA α1β2γ2s receptor was determined by [^3H] flumazenil binding.
Electrophysiology recording: All cultures were perfused in an artificial cerebrospinal fluid (ACSF) containing (in mM): NaCl 150, KCl 3, D-glucose, 10 HEPES 10, CaCl2 3, and mM MgCl2. […] They were recorded with pipettes containing 95 mM potassium-gluconate, 40 mM KCl, 10 mM Hepes, 2 mM MgCl2 (pH 7.3). […]
Offline analysis: The electrophysiological and optical recordings were analysed by using MATLAB 7.6 (Mathworks Software, Natick, Mass.) and all curves have been fitted by using ORIGIN 7.5 (Microcal Software, Northampton, Mass.). […]

Entries after “also recorded” stand apart in the source; their conditions may differ. Read-outs that look alike come from different tables or passages of the source.

T1 sequence (P63138 25-474): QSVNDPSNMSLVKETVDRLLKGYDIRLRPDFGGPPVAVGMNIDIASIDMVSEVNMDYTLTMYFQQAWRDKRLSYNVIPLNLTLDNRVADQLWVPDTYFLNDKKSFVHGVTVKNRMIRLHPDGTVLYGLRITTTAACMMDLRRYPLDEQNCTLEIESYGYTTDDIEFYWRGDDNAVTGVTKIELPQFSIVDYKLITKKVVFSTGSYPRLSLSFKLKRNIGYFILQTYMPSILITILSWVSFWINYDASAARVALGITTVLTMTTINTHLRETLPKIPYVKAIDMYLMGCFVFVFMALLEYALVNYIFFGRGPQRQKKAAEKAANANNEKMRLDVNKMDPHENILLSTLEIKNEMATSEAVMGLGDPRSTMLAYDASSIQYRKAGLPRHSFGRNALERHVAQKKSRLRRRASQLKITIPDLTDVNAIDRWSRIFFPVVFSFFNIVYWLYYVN
T1 sequence (P18508 39-466): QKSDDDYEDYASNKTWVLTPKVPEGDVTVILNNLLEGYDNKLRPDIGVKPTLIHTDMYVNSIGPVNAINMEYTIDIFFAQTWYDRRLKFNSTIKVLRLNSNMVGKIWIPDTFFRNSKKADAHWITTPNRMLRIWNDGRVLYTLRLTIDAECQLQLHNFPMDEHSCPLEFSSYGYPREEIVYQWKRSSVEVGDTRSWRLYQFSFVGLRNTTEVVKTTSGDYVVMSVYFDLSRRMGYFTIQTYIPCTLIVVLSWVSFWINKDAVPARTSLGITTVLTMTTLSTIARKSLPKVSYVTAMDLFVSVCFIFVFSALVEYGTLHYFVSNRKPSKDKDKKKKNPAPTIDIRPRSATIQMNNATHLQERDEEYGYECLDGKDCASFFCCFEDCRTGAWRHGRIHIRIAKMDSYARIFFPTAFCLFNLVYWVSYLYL
T1 sequence (P62813 28-455): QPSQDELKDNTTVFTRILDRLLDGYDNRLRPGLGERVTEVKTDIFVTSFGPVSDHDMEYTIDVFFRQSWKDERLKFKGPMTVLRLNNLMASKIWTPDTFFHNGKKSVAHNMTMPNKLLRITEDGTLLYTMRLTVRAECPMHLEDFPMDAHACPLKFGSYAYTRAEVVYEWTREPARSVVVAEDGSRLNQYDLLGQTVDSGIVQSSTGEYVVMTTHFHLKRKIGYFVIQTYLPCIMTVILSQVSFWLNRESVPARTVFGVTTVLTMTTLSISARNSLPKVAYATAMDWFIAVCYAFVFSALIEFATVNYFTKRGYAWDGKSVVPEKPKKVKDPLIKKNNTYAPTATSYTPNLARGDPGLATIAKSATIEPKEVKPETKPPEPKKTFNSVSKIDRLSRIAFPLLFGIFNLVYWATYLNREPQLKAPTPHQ

`NCCCC(=O)O` [GABA]: in experiment [1], the “effect on phase signal in HEKnorm (in words)” value is reported as “no effect; also recorded: ineffective” and the “Δφ phase signal in HEKnorm” value is 0.33±0.55 °. In addition, in experiment [2] (3 of 46 cells), the “phase response, neurons with increase of phase signal” value is 1.16+/−0.47 °. Besides, the “phase response, neurons with decrease of phase signal” value in experiment [2] (13 of 46 cells) is recorded as −2.55+/−0.29 °. In addition, in experiment [2] (30 of 46 cells), the “phase response, neurons with modest or no detectable signal” value is listed as −0.16+/−0.2 °.
Turning to `NCc1cc(=O)[nH]o1` [muscimol, Muscimol], the “effect on phase signal in HEKGABA (in words)” value in experiment [3] is given as “mimicked the effect of GABA”; in experiment [3] (listed as Muscimol) it was “mimicked”. Besides, the “reversal potential for Cl− (ECl) from I/V curve” value in experiment [4] ([Cl−]intrapip 40 mM (44 mM elsewhere in the source)) is on record as −27 mV; in experiment [4] ([Cl−]intrapip 139 mM), −4 mV.
As to picrotoxin, the “change of phase response evoked by GABA in presence of antagonist” value in experiment [3] (GABA 3 μM 30 s) is reported as −82±17%. For the same compound, the “effect on phase signal in HEKGABA (in words)” value is “reduces the phase shift” in experiment [3] and “blocked” in experiment [3] (listed as Picrotoxin).
